Reference: article PMC7554770, “Develop a High-Throughput Screening Method to Identify C-P4H1 (Collagen Prolyl 4-Hydroxylase 1) Inhibitors from FDA-Approved Chemicals” (International Journal of Molecular Sciences, 2020)
pIC50: −log10 of the molar value.

Experiments:
Format in all cases: biochemical
[1] = biological target: T1, C-P4H1 (collagen prolyl 4-hydroxylase 1; P4HA1 alpha subunit) (Homo sapiens, UniProt P13674); assay: Succinate-Glo Hydroxylase luminescence assay, dose response, with no-enzyme control
T1 construct: Flag-tagged P4HA1 and P4HB co-expressed in HEK-293FT cells, purified C-P4H1 tetramer; with P4HB (protein disulfide isomerase, beta subunit)
T1 sequence (P13674 18-534): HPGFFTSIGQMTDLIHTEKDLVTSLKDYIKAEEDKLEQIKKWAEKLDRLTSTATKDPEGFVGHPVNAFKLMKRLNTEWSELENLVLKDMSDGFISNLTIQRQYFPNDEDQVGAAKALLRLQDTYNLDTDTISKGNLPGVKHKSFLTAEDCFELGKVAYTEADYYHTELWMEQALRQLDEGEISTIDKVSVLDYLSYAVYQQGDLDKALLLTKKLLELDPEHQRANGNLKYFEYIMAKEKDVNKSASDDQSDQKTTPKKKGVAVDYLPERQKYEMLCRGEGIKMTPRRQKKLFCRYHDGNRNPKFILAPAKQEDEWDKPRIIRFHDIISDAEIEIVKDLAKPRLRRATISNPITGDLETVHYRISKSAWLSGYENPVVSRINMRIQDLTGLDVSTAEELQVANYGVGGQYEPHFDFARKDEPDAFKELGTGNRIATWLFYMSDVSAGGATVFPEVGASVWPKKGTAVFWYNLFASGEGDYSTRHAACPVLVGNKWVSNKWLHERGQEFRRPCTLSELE
T1 sequence (P07237 18-508 partner): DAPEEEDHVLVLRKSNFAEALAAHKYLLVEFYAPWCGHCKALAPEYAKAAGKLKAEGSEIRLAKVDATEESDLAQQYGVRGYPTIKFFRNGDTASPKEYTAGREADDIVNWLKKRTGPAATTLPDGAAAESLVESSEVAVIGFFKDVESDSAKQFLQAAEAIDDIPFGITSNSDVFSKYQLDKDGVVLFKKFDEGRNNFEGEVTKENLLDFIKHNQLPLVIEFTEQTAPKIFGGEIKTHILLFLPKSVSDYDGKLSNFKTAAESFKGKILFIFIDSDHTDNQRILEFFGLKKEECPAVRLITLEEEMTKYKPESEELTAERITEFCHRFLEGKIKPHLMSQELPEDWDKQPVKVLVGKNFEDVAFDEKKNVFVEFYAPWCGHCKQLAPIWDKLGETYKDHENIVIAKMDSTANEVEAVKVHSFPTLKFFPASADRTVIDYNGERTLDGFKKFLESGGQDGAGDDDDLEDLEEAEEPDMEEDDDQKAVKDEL

[2] = biological target: T1, C-P4H1 (collagen prolyl 4-hydroxylase 1; P4HA1 alpha subunit); assay: Succinate-Glo Hydroxylase assay, varied co-substrate concentration
[3] = biological target: T1, C-P4H1 (collagen prolyl 4-hydroxylase 1; P4HA1 alpha subunit); assay: Succinate-Glo Hydroxylase luminescence assay, dose response, with no-enzyme control; remark: listed apart in the source

Compound | Succinate-Glo Hydroxylase luminescence assay, dose response, with no-enzyme cont [3] | also measured
CCOC(=O)c1ccc(O)c(O)c1 [DHB, ethyl-3,4-dihydroxybenzoic acid] | – | pIC50 [1]: ~4.70
O=C(O)CCC(=O)C(=O)O [α-KG, α-ketoglutarate] | – | Succinate-Glo Hydroxylase assay, varied co-substrate concentration [2]: increased concentration of GPPG and α-KG induced luminescence assay in a dose-dependent manner
Clc1ccccc1CN1CCc2sccc2C1 [Ticlopidine] | indicating that Silodosin and Ticlopidine specifically inhibited the C-P4H1 activity in vitro | –
C[C@H](Cc1cc2c(c(C(N)=O)c1)N(CCCO)CC2)NCCOc1ccccc1OCC(F)(F)F [Silodosin] | Both drugs inhibited C-P4H1 activity in a dose-dependent manner (Figure 4B,D). | –
